The nature of the data set: collision cross section in nitrogen (drift tube, single-field); higher = larger gas-phase ion size.
[1] abbreviates: ion type: [M-H], ion source: ESI, ion mode: Negative.
Where [2] appears, read: ion type: [M+H], ion source: APCI, ion mode: Positive.
The mark [3] stands for this setting: ion type: [M+H], ion source: ESI, ion mode: Positive.
Where [4] appears, read: ion type: [M+Na], ion source: ESI, ion mode: Positive.
Where [5] appears, read: ion source: ESI, ion mode: Positive, ion type: [M]+ (permanent cation).
The mark [6] stands for this setting: ion source: APCI, ion mode: Positive, ion type: [M]+ (permanent cation).

Counter-ions that a name gives are not always drawn.
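Further: chemical standards at 10 µM analysed by drift tube IMS-QTOF MS in about 3.95 torr nitrogen, mean of duplicate injections differing ≤1%, mass error below 10 ppm.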

Consider `Oc1cc2ccccc2c2ccccc12` [9-Phenanthrol], for which the “collision cross section in nitrogen” value under setting [1] was determined as 140.7 Å².

Take `CCOC(=O)N1CCC(=C2c3ccc(Cl)cc3CCc3cccnc32)CC1` [Loratadine]: the “collision cross section in nitrogen” value is given as 187.9 Å² under setting [2], 187.4 Å² under setting [3] and 195.1 Å² under setting [4].

As to `O=C(O)CCCC[C@@H]1SC[C@H]2NC(=O)N[C@@H]12` [Biotin], the “collision cross section in nitrogen” value under setting [2] is reported as 149.9 Å², the “collision cross section in nitrogen” value under setting [3] turned out to be 149.3 Å², the “collision cross section in nitrogen” value under setting [4] is 159.6 Å² and the “collision cross section in nitrogen” value under setting [1] amounted to 155.5 Å².

Consider `CC1=NN(c2ccc(C)cc2)C(=O)C1` [3-Methyl-1-p-tolyl-5-pyrazolone], for which the “collision cross section in nitrogen” value under setting [3] is reported as 142.9 Å², the “collision cross section in nitrogen” value under setting [4] was determined as 156.9 Å² and the “collision cross section in nitrogen” value under setting [1] is given as 144.4 Å².

For `CCCCCCCC(=O)N(C)C` [N,N-Dimethyloctanamide], the “collision cross section in nitrogen” value was 146.6 Å² under setting [2] and 146.8 Å² under setting [3].

For the molecule `Cc1c(C2(c3cc(Br)c(O)c(Br)c3C)c3ccccc3OS2(=O)=O)cc(Br)c(O)c1Br`, the “collision cross section in nitrogen” value under setting [1] came out at 217.4 Å².

With `Cc1ccc(S(=O)(=O)Oc2ccc(N=Nc3ccc(-c4ccc(N=Nc5c(O)ccc6cc(S(=O)(=O)O)cc(S(=O)(=O)O)c56)c(C)c4)cc3C)cc2)cc1` [C.I. Acid Red 114], the “collision cross section in nitrogen” value under setting [3] stood at 319.9 Å² and the “collision cross section in nitrogen” value under setting [1] was determined as 317.8 Å².

As to `O=[N+]([O-])c1ccc2[nH]c(S)nc2c1` [5-Nitro-2-mercaptobenzimidazole], the “collision cross section in nitrogen” value under setting [1] was found to be 133.6 Å².

With `COCN(COC)c1nc(N(COC)COC)nc(N(COC)COC)n1` [Hexa(methoxymethyl)melamine], the “collision cross section in nitrogen” value under setting [4] worked out at 194.1 Å².

On to `CCCCCCCCCCCC[N+](C)(C)CC(=O)O` [C12-14-Alkyldimethyl betaines], for which the “collision cross section in nitrogen” value under setting [5] came out at 183.8 Å².

For `Nc1ccn([C@@H]2O[C@H](CO)[C@@H](O)[C@@H]2O)c(=O)n1` [Cytarabine hydrochloride], under setting [4], the “collision cross section in nitrogen” value is 157.1 Å².

Consider `O=S(=O)(O)CCCN1CCOCC1` [4-Morpholinepropanesulfonic acid], for which the “collision cross section in nitrogen” value amounted to 142.7 Å² under setting [2], 142.4 Å² under setting [3], 154.6 Å² under setting [4] and 149.5 Å² under setting [1].

With `CCCCCCCCSCc1cc(C)c(O)c(CSCCCCCCCC)c1` [2-Methyl-4,6-bis[(octylthio)methyl]phenol], under setting [1], the “collision cross section in nitrogen” value was 208 Å².

As to `CC(c1ccccc1)(c1ccc(O)cc1)c1ccc(O)cc1` [4,4'-(1-Phenylethylidene)bisphenol], the “collision cross section in nitrogen” value under setting [1] is 180 Å².

`OCCOCCOCCO` [Triethylene glycol]: the “collision cross section in nitrogen” value under setting [4] is recorded as 131.5 Å².

Take `CCCC[P+](CCCC)(CCCC)CCCC` [Tetrabutylphosphonium chloride]: the “collision cross section in nitrogen” value under setting [6] stood at 172.4 Å².

For the molecule `CC(C)(c1cc(Cl)c(O)c(Cl)c1)c1cc(Cl)c(O)c(Cl)c1` [2,2',6,6'-Tetrachlorobisphenol A], the “collision cross section in nitrogen” value under setting [1] amounted to 184.3 Å².

Take `CCc1cccc(C)c1N(C(=O)CS(=O)(=O)O)C(C)COC` (configuration not stated) [Metolachlor ESA]: the “collision cross section in nitrogen” value stood at 177.4 Å² under setting [4] and 173.9 Å² under setting [1].

On to `O=C(O)C1(c2ccc3c(c2)OC[C@H](Cc2ccc(-c4ccccc4)cc2)[C@H]3O)CCCC1`, for which the “collision cross section in nitrogen” value under setting [4] came out at 202.9 Å².

As to `CCc1nn(C2CCCCC2)c2cc([C@]3(C#N)CC[C@@H](C(=O)O)CC3)ccc12`, the “collision cross section in nitrogen” value reads like this: under setting [2], 206 Å²; under setting [3], 205.4 Å²; under setting [1], 213.8 Å².

As to `COc1ccc(NC(=O)CC(C)=O)cc1` [N-(4-Methoxyphenyl)-3-oxobutanamide], the “collision cross section in nitrogen” value runs as follows: under setting [2], 146.5 Å²; under setting [4], 160.2 Å²; under setting [1], 148.5 Å².

Turning to `c1ccc2c(c1)-c1ccc3ccc4cccc5cc-2c1c3c45` [Indeno[1,2,3-cd]pyrene], the “collision cross section in nitrogen” value (ion type: [M+], ion source: APCI, ion mode: Positive) is 156.7 Å².

Take `Oc1ccc(Cl)cc1Cl` [2,4-Dichlorophenol]: the “collision cross section in nitrogen” value under setting [1] is on record as 123.6 Å².

For `Oc1ccc(C2COc3cc(O)ccc3C2)cc1` (racemic) [(R,S)-Equol], the “collision cross section in nitrogen” value under setting [1] came to 159.6 Å².

With `Cc1cc(C(C)(C)c2ccc(O)c(C)c2)ccc1O` [3,3'-Dimethylbisphenol A], under setting [1], the “collision cross section in nitrogen” value is recorded as 172.9 Å².

For the molecule `Cc1ccc([N+](=O)[O-])cc1N=Nc1c(O)c(C(=O)Nc2ccccc2)cc2ccccc12` [C.I. Pigment Red 22], the “collision cross section in nitrogen” value under setting [1] is recorded as 207 Å².

In the case of `CC(Cc1ccc(OCC(=O)O)cc1)NCC(O)c1csc(C(F)(F)F)n1` (configuration not stated), the “collision cross section in nitrogen” value runs as follows: under setting [2], 181.1 Å²; under setting [3], 181.4 Å²; under setting [4], 181.2 Å²; under setting [1], 184.7 Å².

Regarding `CCOC(=O)OC1=C(c2cc(C)ccc2C)C(=O)N[C@]12CC[C@@H](OC)CC2` [Spirotetramat], the “collision cross section in nitrogen” value runs as follows: under setting [2], 190.2 Å²; under setting [3], 189.3 Å²; under setting [4], 202.3 Å².

With `OCc1cccnc1` [Nicotinyl alcohol], the “collision cross section in nitrogen” value runs as follows: under setting [2], 119.2 Å²; under setting [3], 119.8 Å².

Regarding `CCCCCCCC[N+](C)(CCCCCCCC)CCCCCCCC` [Methyltrioctylammonium chloride], the “collision cross section in nitrogen” value runs as follows: under setting [6], 222.2 Å²; under setting [5], 221.8 Å².

As for `Nc1ccc([N+](=O)[O-])cc1O` [2-Amino-5-nitrophenol], the “collision cross section in nitrogen” value under setting [1] is reported as 125.3 Å².

For the molecule `CCCCC(CC)COC(=O)c1c(Br)c(Br)c(Br)c(Br)c1C(=O)OCC(CC)CCCC` (configuration not stated) [Bis(2-ethylhexyl) tetrabromophthalate], the “collision cross section in nitrogen” value under setting [4] is reported as 240.6 Å².

On to `CCCOC(=O)c1cc(O)c(O)c(O)c1` [Gallic acid n-propyl ester], for which the “collision cross section in nitrogen” value under setting [1] came out at 146.5 Å².

Turning to `CCCCCCOC(=O)CCCCCCCC(=O)OCCCCCC` [Dihexyl nonanedioate], the “collision cross section in nitrogen” value under setting [4] was determined as 210.8 Å².

Consider `COc1ccc(OC)c(NC(=O)CC(C)=O)c1` [N-(2,5-Dimethoxyphenyl)-3-oxobutanamide], for which the “collision cross section in nitrogen” value by setting is: under setting [4], 159.2 Å²; under setting [1], 154.4 Å².

Consider `CN(C)c1ccncc1` [N,N-dimethylpyridin-4-amine], for which the “collision cross section in nitrogen” value by setting is: under setting [2], 120.6 Å²; under setting [3], 120.5 Å².

In the case of `Cc1ncc(C[n+]2csc(CCO)c2C)c(N)n1` [Thiamine nitrate], the “collision cross section in nitrogen” value under setting [6] stood at 161.5 Å².

Take `Cc1cc(S(=O)(=O)O)ccc1N=Nc1c(O)ccc2ccccc12` [C.I. Acid Orange 8, monosodium salt]: the “collision cross section in nitrogen” value under setting [1] came to 187.1 Å².

For the molecule `CC(C)CCCCCCCOC(=O)c1ccccc1C(=O)OCCCCCCCC(C)C`, under setting [4], the “collision cross section in nitrogen” value stood at 225.8 Å².

In the case of `CCCCC(CC)C(=O)OCCOCCOCCOC(=O)C(CC)CCCC` (configuration not stated) [Triethylene glycol bis(2-ethylhexanoate)], the “collision cross section in nitrogen” value under setting [4] is 207.3 Å².

For `Nc1nc[nH]n1` [Amitrole], the “collision cross section in nitrogen” value under setting [1] amounted to 113.2 Å².
